Data reported in PubChem BioAssay AID1963450 (Molecular Pharmacology Branch, DTP, NCI, 2024).

Tested on: 556581-035-R-J1-PDC complex spheroid growth
Experiment: Anticancer human tumor 556581-035-R-J1-PDC patient-derived ovarian carcinoma cell line growth inhibition [Asc]
Details: for IC50: curve of first compound; for viability, T/C: stronger effect = lower value
Procedure, shortened: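 Tumor cells were grown as multicellular spheroids with stromal HUVEC and mesenchymal stem cells and treated singly or in combination. Concentrations fell in half-log steps from the clinical Cmax, or from 10 microM where none was known.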

[1] = second compound 0.01 µM, first compound 0.00316 µM
[2] = second compound 0.01 µM, first compound 0.01 µM
[3] = second compound 0.01 µM, first compound 0.0316 µM
[4] = second compound 0.01 µM, first compound 0.1 µM
[5] = second compound 0.01 µM, first compound 0.316 µM
[6] = second compound 0.01 µM, first compound 1 µM
[7] = second compound 0.0316 µM, first compound 0.00316 µM
[8] = second compound 0.0316 µM, first compound 0.01 µM
[9] = second compound 0.0316 µM, first compound 0.0316 µM
[10] = second compound 0.0316 µM, first compound 0.1 µM
[11] = second compound 0.0316 µM, first compound 0.316 µM
[12] = second compound 0.0316 µM, first compound 1 µM
[13] = second compound 0.1 µM, first compound 0.00316 µM
[14] = second compound 0.1 µM, first compound 0.01 µM
[15] = second compound 0.1 µM, first compound 0.0316 µM
[16] = second compound 0.1 µM, first compound 0.1 µM
[17] = second compound 0.1 µM, first compound 0.316 µM
[18] = second compound 0.1 µM, first compound 1 µM
[19] = second compound 0.316 µM, first compound 0.00316 µM
[20] = second compound 0.316 µM, first compound 0.01 µM
[21] = second compound 0.316 µM, first compound 0.0316 µM
[22] = second compound 0.316 µM, first compound 0.1 µM
[23] = second compound 0.316 µM, first compound 0.316 µM
[24] = second compound 0.316 µM, first compound 1 µM
[25] = second compound 1 µM, first compound 0.00316 µM
[26] = second compound 1 µM, first compound 0.01 µM
[27] = second compound 1 µM, first compound 0.0316 µM
[28] = second compound 1 µM, first compound 0.1 µM
[29] = second compound 1 µM, first compound 0.316 µM
[30] = second compound 1 µM, first compound 1 µM
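Note: spheroids exposed to agents for 7 days before viability read.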

| IC50 (second compound 0.01 µM) [nM] | IC50 (second compound 0.0316 µM) [nM] | IC50 (second compound 0.1 µM) [nM] | IC50 (second compound 0.316 µM) [nM] | IC50 (second compound 1 µM) [nM] | SMILES | viability, T/C [1] [%] | viability, T/C [2] [%] | viability, T/C [3] [%] | viability, T/C [4] [%] | viability, T/C [5] [%] | viability, T/C [6] [%] | viability, T/C [7] [%] | viability, T/C [9] [%] | viability, T/C [10] [%] | viability, T/C [15] [%] | viability, T/C [16] [%] | viability, T/C [21] [%] | viability, T/C [22] [%] | viability, T/C [27] [%] | viability, T/C [28] [%] | other results |
| --- | --- | --- | --- | --- | --- | --- | --- | --- | --- | --- | --- | --- | --- | --- | --- | --- | --- | --- | --- | --- | --- |
| > 1000 | > 1000 | 339 | 318 | 251 | CCN1CCN(Cc2ccc(Nc3ncc(F)c(-c4cc(F)c5nc(C)n(C(C)C)c5c4)n3)nc2)CC1 + CNC(C)C(=O)NC1CN(S(=O)(=O)c2cccc(S(=O)(=O)N3CCC4CCC(C(=O)NC(c5ccccc5)c5ccccc5)N4C(=O)C(NC(=O)C(C)NC)C3)c2)CCC2CCC(C(=O)NC(c3ccccc3)c3ccccc3)N2C1=O | 94.7 | 97.4 | 67.4 | 73.6 | 78.5 | 72.2 | 87.5 | 83 | 85.7 | 78.8 | 65.4 | 86.5 | 57.8 | 82.7 | 56.2 | viability, T/C [8]: 88.7%; viability, T/C [11]: 75.5%; viability, T/C [12]: 56.2%; viability, T/C [13]: 73.6%; viability, T/C [14]: 79.3%; viability, T/C [17]: 51.6%; viability, T/C [18]: 44%; viability, T/C [19]: 84.3%; viability, T/C [20]: 82.8%; viability, T/C [23]: 56%; viability, T/C [24]: 37.6%; viability, T/C [25]: 78.2%; viability, T/C [26]: 82.8%; viability, T/C [29]: 51.7%; viability, T/C [30]: 33% |
| > 100 | > 100 | > 100 | > 100 | > 100 | Cn1ncnc1[C@H]1c2n[nH]c(=O)c3cc(F)cc(c23)N[C@@H]1c1ccc(F)cc1 + CNC(C)C(=O)NC1CN(S(=O)(=O)c2cccc(S(=O)(=O)N3CCC4CCC(C(=O)NC(c5ccccc5)c5ccccc5)N4C(=O)C(NC(=O)C(C)NC)C3)c2)CCC2CCC(C(=O)NC(c3ccccc3)c3ccccc3)N2C1=O | 80.4 | 83.8 | 71.4 | 72.9 |  |  | 79.2 | 89.9 | 88.8 | 69.2 | 62.2 | 77.4 | 69.9 | 71.8 | 67 | viability, T/C (second compound 0.01 µM, first compound 0.000316 µM): 69.2%; viability, T/C (second compound 0.01 µM, first compound 0.001 µM): 69.1%; viability, T/C (second compound 0.0316 µM, first compound 0.000316 µM): 84.4%; viability, T/C (second compound 0.0316 µM, first compound 0.001 µM): 98.2%; viability, T/C [8]: 77%; viability, T/C (second compound 0.1 µM, first compound 0.000316 µM): 92.7%; viability, T/C (second compound 0.1 µM, first compound 0.001 µM): 73.7%; viability, T/C [13]: 65.5%; viability, T/C [14]: 69.2%; viability, T/C (second compound 0.316 µM, first compound 0.000316 µM): 76.3%; viability, T/C (second compound 0.316 µM, first compound 0.001 µM): 74%; viability, T/C [19]: 63.8%; viability, T/C [20]: 74%; viability, T/C (second compound 1 µM, first compound 0.000316 µM): 78.8%; viability, T/C (second compound 1 µM, first compound 0.001 µM): 77.6%; viability, T/C [25]: 71.1%; viability, T/C [26]: 69.5% |
| > 10000 | > 10000 | > 10000 | > 10000 | 10000 | O=C(c1cc(Cc2n[nH]c(=O)c3ccccc23)ccc1F)N1CCN(C(=O)C2CC2)CC1 + CNC(C)C(=O)NC1CN(S(=O)(=O)c2cccc(S(=O)(=O)N3CCC4CCC(C(=O)NC(c5ccccc5)c5ccccc5)N4C(=O)C(NC(=O)C(C)NC)C3)c2)CCC2CCC(C(=O)NC(c3ccccc3)c3ccccc3)N2C1=O |  |  | 83.4 | 74.5 | 88.2 | 93.8 |  | 89.3 | 88.7 | 84.4 | 67 | 88 | 76.3 | 76.8 | 84.1 | viability, T/C (second compound 0.01 µM, first compound 3.16 µM): 52.8%; viability, T/C (second compound 0.01 µM, first compound 10 µM): 56.8%; viability, T/C [11]: 87.3%; viability, T/C [12]: 88.8%; viability, T/C (second compound 0.0316 µM, first compound 3.16 µM): 55.3%; viability, T/C (second compound 0.0316 µM, first compound 10 µM): 73.1%; viability, T/C [17]: 67.2%; viability, T/C [18]: 61.5%; viability, T/C (second compound 0.1 µM, first compound 3.16 µM): 49.1%; viability, T/C (second compound 0.1 µM, first compound 10 µM): 61.2%; viability, T/C [23]: 86%; viability, T/C [24]: 76%; viability, T/C (second compound 0.316 µM, first compound 3.16 µM): 50%; viability, T/C (second compound 0.316 µM, first compound 10 µM): 63.2%; viability, T/C [29]: 73.8%; viability, T/C [30]: 88%; viability, T/C (second compound 1 µM, first compound 3.16 µM): 45.7%; viability, T/C (second compound 1 µM, first compound 10 µM): 61.2% |
| 219 | 187 | 92 | 183 | 119 | O=C(c1ccc(F)c(F)c1Nc1ccc(I)cc1F)N1CC(O)([C@@H]2CCCCN2)C1 + CNC(C)C(=O)NC1CN(S(=O)(=O)c2cccc(S(=O)(=O)N3CCC4CCC(C(=O)NC(c5ccccc5)c5ccccc5)N4C(=O)C(NC(=O)C(C)NC)C3)c2)CCC2CCC(C(=O)NC(c3ccccc3)c3ccccc3)N2C1=O | 68.6 | 71.7 | 87.2 | 83.6 | 37 | 10.6 | 86.4 | 84.2 | 71.9 | 59.7 | 50.8 | 91.7 | 66.3 | 74 | 53.6 | viability, T/C [8]: 72.7%; viability, T/C [11]: 31.2%; viability, T/C [12]: 13.3%; viability, T/C [13]: 68.3%; viability, T/C [14]: 64.5%; viability, T/C [17]: 27.1%; viability, T/C [18]: 12.7%; viability, T/C [19]: 73.9%; viability, T/C [20]: 68.8%; viability, T/C [23]: 33.7%; viability, T/C [24]: 15.2%; viability, T/C [25]: 70.9%; viability, T/C [26]: 81.4%; viability, T/C [29]: 24.6%; viability, T/C [30]: 11.2% |
